Reference: patent US10596296B2, “Heparan sulphates” (Agency for Science, Technology and Research, priority 2014, dated 2020)

Tests used:
TGF-β1 = biological target: T1, TGF-β1 (Homo sapiens, UniProt P01137); assay: Differential scanning fluorimetry (DSF) of TGF-β1; type: binding; details: TGF-β1 2.5 μM, DTT 10 mM, heparin 25 μM
T1 construct: full length mature TGF-β1 is 112 amino acids in length
Experimental: DSF was performed on a 7500 Fast Real PCR System (software version 1.4, Applied Biosystems), as described previously (34,35). TGF-β1 (2.5 μM) was tested with or without heparin (25 μM). To facilitate the melting of TGF-β1, 10 mM of dithiothreitol (DTT) was added to the reaction mix. Experiments were run as previously described (34). First derivatives of the melting curves were calculated using Origin 7 (OriginLab Corp.) to determine the melting temperature of TGF-β1 under the various conditions.

[1] = tested on: chondrogenic differentiation of hMSCs; assay: qPCR of day 3 chondrogenic micromass pellets (Example 1); type: cell-based, human; details: day 3; 10 ng/ml TGF-β1 with 10 μg/ml heparin
Experimental: Chondrogenic differentiation was carried out using a modified micromass culture system as described by Zhang et al. (32). Briefly, passage 4 hMSCs were harvested and resuspended in chemically defined chondrogenic media (PT-3003, Lonza) at 2×10^7 cells/ml. Droplets of 12.5 μl were then seeded into the middle of each well in a 24-well plate and left to adhere at 37° C. for 2 h, after which, 500 μl of chondrogenic media supplemented with either 10 ng/ml of TGF-β1 (100-21C, PeproTech) alone (Media) or TGF-β1 with 10 μg/ml of heparin (Sigma-Aldrich) (Media+Hep) was added to each well. The cell droplets coalesced into spherical masses after 24 h and the micromasses harvested on day 3. Human MSCs were cultured in 6-well plates in basal media for 24 h at a density of 10,000 cells/cm^2. TGF-β1 treatments were then prepared at either 1 ng/ml or 5 ng/ml alone or in the presence of either 10 μg/ml or 40 μg/ml of full length heparin, or 1 ng/ml of TGF-β1 with 10 μg/ml size-fractionated or selectively desulfated heparin, HS^PM, HS16+ or HS16−, and incubated at room temperature for 10 min before being added to the cells. Latent TGF-β1 (LTGF-β1) treatments were similarly prepared at 3.3 ng/ml alone or with 10 μg/ml of the various GAGs described above. For inhibitor studies, the cells were pre-treated for 30 min with 10 μM SB431542 (Sigma-Aldrich) or DMSO before treatment with TGF-β1. The cells were then subjected to the various TGF-β1 treatments for 1, 6 or 24 h and lysed in 2× Laemmli buffer, before being resolved on a 4-12% SDS-PAGE gel. Samples were then immunoblotted with antibodies against SMAD2/3 (#3102, Cell Signaling), phosphorylated SMAD2 (pSMAD2, #3108, Cell Signaling), phosphorylated SMAD3 (pSMAD3, #9520, Cell Signaling) and actin (MAB1501R, Millipore). Densitometry was carried out using Quantity One software (version 4.6.6, Bio-Rad). Total RNA was isolated from chondrogenic micromass pellets using TRIZOL reagent (Invitrogen, Life Technologies) according to the manufacturer's protocol. Reverse transcription was carried out on 1 μg RNA using the SuperScript® VILO™ cDNA Synthesis Kit (Invitrogen, Life Technologies) following the manufacturer's instructions, with the incubation at 42° C. being carried out for 2 h instead of 1 h. Each qPCR contained 40 ng cDNA, 1 μl TaqMan® primer-probe mix per gene, and 10 μl Taqman® Fast Universal PCR Master Mix (Applied Biosystems, Life Technologies) in a final volume of 20 μl. Thermal cycling conditions were 95° C. for 20 s, followed by 45 cycles of 95° C. for 3 s and 60° C. for 30 s. Each qPCR was run in duplicate and gene expression was normalized to HPRT1 expression to obtain the ΔCt value. […] Relative expression levels for each primer set were expressed as fold changes by the 2^−ΔΔCt method (36). […]

[2] = tested on: chondrogenic differentiation of hMSCs; assay: Alcian blue staining of chondrogenic micromass pellets; type: cell-based, human; details: 21 days; 1 ng/mL TGF-β1 with 10 μg/mL GAG
Experimental: In order to assess the effects of HS16+ve on the chondrogenic differentiation of hMSCs in vitro, it was first necessary to establish the effects of TGF-β1 alone. Chondrogenic differentiation was carried out using a modified micromass culture system. [Zhang, L., et al., Chondrogenic differentiation of human mesenchymal stem cells: a comparison between micromass and pellet culture systems. Biotechnol Lett, 2010. 32(9): p. 1339-1346.]. Briefly, passage 4 hMSCs were harvested and resuspended in chemically defined chondrogenic media (PT-3003, Lonza, MD, USA) at 2×10^7 cells/mL. Droplets of 12.5 μL were then seeded into the middle of each well in a 24-well plate and left to adhere at 37° C. for 2 h, after which, 500 μL of chondrogenic media supplemented with either 1 or 10 ng/mL of TGF-β1 (100-210, PeproTech) alone or with either 5 or 10 μg/mL of heparin (Sigma-Aldrich), porcine mucosal HS (HSPM) (Celsus laboratories), HS16+ve or HS16-ve was added to each well. The cell droplets coalesced into spherical masses after 24 h. Media was changed every 3 days and the micromasses harvested on days 3, 7, 14 and 21.

LTGF-β1 = LTGF-β1 (Homo sapiens, UniProt P01137); details: reference (56); cited from earlier work
LTGF-β1, sequence (P01137 279-390 limits assumed): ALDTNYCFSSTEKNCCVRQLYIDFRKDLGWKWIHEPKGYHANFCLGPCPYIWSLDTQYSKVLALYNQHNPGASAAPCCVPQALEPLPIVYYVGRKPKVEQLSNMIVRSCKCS
LTGF-β1, sequence (P01137 30-278 limits assumed): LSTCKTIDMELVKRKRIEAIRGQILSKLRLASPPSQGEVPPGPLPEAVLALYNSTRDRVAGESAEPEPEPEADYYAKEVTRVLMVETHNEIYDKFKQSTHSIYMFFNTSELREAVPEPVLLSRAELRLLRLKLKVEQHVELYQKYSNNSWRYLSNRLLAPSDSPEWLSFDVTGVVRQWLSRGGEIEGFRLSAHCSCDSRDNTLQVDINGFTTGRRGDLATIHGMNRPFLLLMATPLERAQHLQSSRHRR

T1 sequence (P01137 279-390 limits assumed): as the sequence (P01137 279-390 limits assumed) above

Substance: heparin
- melting temperature of TGF-β1 upon addition of heparin (TGF-β1): 47.5 °C
- COMP mRNA transcripts relative to Media (TGF-β1 alone) [1]: ~5 fold
- SOX9 mRNA transcripts relative to Media (TGF-β1 alone) [1]: ~5 fold
- GAG deposition by Alcian blue staining relative to 1 ng/mL TGF-β1 alone [2]: slight increase in GAG deposition
- effect on activation of LTGF-β1 (LTGF-β1): inhibit the activation of LTGF-β1
